Measured values from patent EP0768085A1, “ANTIBACTERIAL AGENT” (DAIICHI PHARMACEUTICAL CO., LTD., priority 1994, dated 1996).
Converted amounts (≈) assume the structure as drawn.

Assays:
Format in all cases: cell-based
[1] = test system: Bordetella bronchiseptica (SM2-4); experiment: Antibacterial activity (IC), broth microplate as in Example 4 (Example 7, Table 42); details: 18 h
Method: (§1) A suitable amount of a sample was dissolved in dimethylsulfoxide (DMSO), and the resultant solution was diluted with the same amount of sterilized distilled water to prepare a bulk sample of 1,000 µg/ml. Mueller-Hinton broth (product of DIFCO) was dispensed into each well of 96-well microplate. Thereafter, the bulk specimen was added to the first well of a row, and successively diluted (10-fold each time) with sterilized distilled water. Separately, a bacterial cell suspension for the test (Staphylococcus aureus 209-P) which had been cultured in the above-mentioned broth overnight at 37°C was inoculated to each well so that the final inoculation amount of 10^6 CFU/ml was attained. The final concentrations of the samples were 100, 10, and 1 µg/ml.
(§2) The antibacterial action was evaluated by the inhibitory concentration (hereinafter abbreviated as IC) at which propagation of the bacteria cultured at 37°C for 18 hours was inhibited. Inhibition was determined by the turbidity of the medium. The expressions "IC≤100", "≤10", and "≤1" indicate that MIC-equivalent values obtained at the succesive […] dilution of the sample are 100-10 µg/ml, 10-1 µg/ml, and not more than 1 µg/ml, respectively. […] (In the subsequent Examples, the same rule applies correspondingly.) Table 39
In a manner similar to that described in Example 4, antibacterial activity of the invention compound was determined. The bacterium used for the test was Bordetella bronchiseptica (SM2-4).

[2] = test system: Pasteurella multocida (Kobe-6); experiment: Antibacterial activity (IC), broth microplate as in Example 4 (Example 6, Table 41); details: 18 h, origin pig
Method: as §1, §2
In a manner similar to that described in Example 4, antibacterial activity of the invention compound was determined. The bacterium used for the test was Pasteurella Kobe-6 (origin: pig; Pasteurella multocida).

[3] = test system: Staphylococcus aureus 209-P; experiment: Antibacterial activity (IC), Mueller-Hinton broth, 96-well microplate (Example 4, Table 39); details: 37°C, 18 hours
Method: as §1, §2

[4] = test system: Staphylococcus aureus TI-1; experiment: Antibacterial activity (IC), broth microplate as in Example 4 (Example 5, Table 40); details: TI1, 18 h
Method: as §1, §2
In a manner similar to that described in Example 4, antibacterial activity of the invention compound was determined. The bacterium used for the test was Staphylococcus aureus TI-1.

[5] = test system: Streptococcus aureus (TI-1); experiment: Antibacterial activity (IC), agar as in Example 8 (Example 16, Table 49); details: 18 h
Method: as §2
(§3) A suitable amount of a sample was dissolved in dimethylsulfoxide (DMSO), after which the resulting solution was diluted with the same amount of sterilized distilled water to prepare a bulk sample of 1,000 µg/ml. Separately, a bacterial liquid for the test (methicillin-resistant Staphylococcus aureus (MRSA) isolated from humans) which had been cultured in Mueller-Hinton broth (product of DIFCO) was prepared and inoculated to a Mueller-Hinton agar (product of DIFCO) containing the sample so that the final inoculation amount of 10^6 CFU/ml was achieved. The final concentrations of the samples were 100, 10, and 1 µg/ml.
(§4) After culturing at 37°C for 18 hours, the antibacterial activity was evaluated in terms of IC in a manner similar to that described in Example 4.
In a manner similar to that described in Example 8, antibacterial activity of the invention compound was determined. The bacterium used for the test was […] aureus (TI-1).

[6] = test system: Pasteurella multocida (Kobe-6); experiment: Antibacterial activity (IC), agar as in Example 8 (Example 17, Table 50); details: 18 h, origin pig
Method: as §2, §3, §4
In a manner similar to that described in Example 8, antibacterial activity of the invention compound was determined. The bacterium used for the test was Pasteurella Kobe-6 (origin: pig, Pasteurella multocida).

Enterococcus from fish = experiment: Antibacterial activity (IC), agar as in Example 8, media with 1.5% NaCl, 25°C (Example 20, Tables 53-55); details: for MIC: Enterococcus Seriolicida SE94-002
Method: as §2, §3, §4
(§5) In a manner similar to that described in Example 8, antibacterial activity of a variety of ketonitrile derivatives shown in Tables 53-55 was measured. The bacteria used for the test were Enterococcus and Pasteurella from fish. The culture conditions were such that the media contained 1.5% NaCl, and the culture temperature was 25°C.

Pasteurella from fish = experiment: as above; details: for MIC: Pasteurella piscicida KP94-02
Method: as §2, §3, §4, §5

[7] = test system: Staphylococcus aureus (209-P); experiment: Antibacterial activity (IC), agar as in Example 8 (Example 15, Table 48); details: 18 h
Method: as §2, §3, §4
The bacterium used for the test was Staphylococcus aureus (209-P).

[8] = test system: methicillin-resistant Staphylococcus aureus (MRSA) from humans; experiment: Antibacterial activity (IC), agar as in Example 8 (Example 19, Table 52); details: 18 h
Method: as §2, §3, §4
In a manner similar to that described in Example 8, antibacterial activity of a variety of ketonitrile derivatives shown in Table 52 was measured. The bacterium used for the test was methicillin-resistant Staphylococcus aureus (MRSA) from humans.

[9] = Enterococcus Seriolicida KG86050
[10] = Enterococcus Seriolicida MS89060
[11] = Enterococcus Seriolicida MS89064
[12] = Enterococcus Seriolicida MS89066
[13] = Enterococcus Seriolicida MS89068
[14] = Enterococcus Seriolicida SE94-001
[15] = Enterococcus Seriolicida SE94-003
[16] = Enterococcus Seriolicida SE94-004
[17] = Enterococcus Seriolicida SE94-005

SMILES	MIC [2] [µg/mL]	MIC [3] [µg/mL]	MIC [4] [µg/mL]	MIC [5] [µg/mL]	MIC [6] [µg/mL]	IC (Enterococcus from fish; Enterococcus Seriolicida HI)	IC (Enterococcus from fish; [9])	IC (Enterococcus from fish; [10])	IC (Enterococcus from fish; [11])	IC (Enterococcus from fish; [12])	IC (Enterococcus from fish; [13])	IC (Enterococcus from fish; [14])	MIC (Enterococcus from fish) [µg/mL]	IC (Enterococcus from fish; [15])	IC (Enterococcus from fish; [16])	IC (Enterococcus from fish; [17])	MIC (Pasteurella from fish) [µg/mL]	IC (Pasteurella from fish; Pasteurella piscicida KP94-04)	IC (Pasteurella from fish; Pasteurella piscicida KP94-05)	IC (Pasteurella from fish; Pasteurella piscicida KP94-06)	other results
Cc1cccc(C(C#N)C(=O)C(C)Oc2ccc(Oc3ncc(C(F)(F)F)cc3Cl)cc2)c1 (stereo not shown) [compound 16]	10 to 100 (≈ 21.1 to 211 µM)	10 to 100 (≈ 21.1 to 211 µM)	1 to 10 (≈ 2.11 to 21.1 µM)	–	–	–	–	–	–	–	–	–	–	–	–	–	–	–	–	–	MIC [1]: 10 to 100 µg/mL (≈ 21.1 to 211 µM)
COc1cccc(C(C#N)C(=O)C(C)Oc2ccc(Oc3ncc(C(F)(F)F)cc3Cl)cc2)c1 (stereo not shown) [compound 17]	10 to 100 (≈ 20.4 to 204 µM)	10 to 100 (≈ 20.4 to 204 µM)	10 to 100 (≈ 20.4 to 204 µM)	–	–	–	–	–	–	–	–	–	–	–	–	–	–	–	–	–	–
CC(Oc1ccc(Oc2ncc(Cl)cc2Cl)cc1)C(=O)C(C#N)c1nc(Cl)cc(Cl)n1 (stereo not shown) [compound 20]	10 to 100 (≈ 20.1 to 201 µM)	10 to 100 (≈ 20.1 to 201 µM)	1 to 10 (≈ 2.01 to 20.1 µM)	–	–	–	–	–	–	–	–	–	–	–	–	–	–	–	–	–	–
CC(Oc1ccc(Oc2ccc(C(F)(F)F)cc2Cl)cc1)C(=O)C(C#N)c1nc(Cl)cc(Cl)n1 (stereo not shown) [compound 22]	10 to 100 (≈ 18.8 to 188 µM)	1 to 10 (≈ 1.88 to 18.8 µM)	1 to 10 (≈ 1.88 to 18.8 µM)	–	–	–	–	–	–	–	–	–	–	–	–	–	–	–	–	–	–
CC(Oc1ccc(Oc2ncc(C(F)(F)F)cc2Cl)cc1)C(=O)C(C#N)c1ccc(F)c(F)c1 (stereo not shown) [compound 27]	10 to 100 (≈ 20.1 to 201 µM)	1 to 10 (≈ 2.01 to 20.1 µM)	1 to 10 (≈ 2.01 to 20.1 µM)	–	–	–	–	–	–	–	–	–	–	–	–	–	–	–	–	–	–
COc1cc(Oc2ccc(C(F)(F)F)cc2Cl)cc(OC(C)C(=O)C(C#N)c2ccc(Cl)c(Cl)c2)c1 (stereo not shown) [compound 209]	–	–	–	1 to 10 (≈ 1.79 to 17.9 µM)	1 to 10 (≈ 1.79 to 17.9 µM)	≤10 (10-1 µg/ml)	≤10 (10-1 µg/ml)	≤10 (10-1 µg/ml)	≤10 (10-1 µg/ml)	≤10 (10-1 µg/ml)	≤10 (10-1 µg/ml)	≤10 (10-1 µg/ml)	1 to 10 (≈ 1.79 to 17.9 µM)	≤10 (10-1 µg/ml)	≤10 (10-1 µg/ml)	≤10 (10-1 µg/ml)	10 to 100 (≈ 17.9 to 179 µM)	≤100 (MIC-equivalent values obtained at the succesive 2-fold dilution of the sample are 100-10 µg/ml)	≤100 (MIC-equivalent values obtained at the succesive 2-fold dilution of the sample are 100-10 µg/ml)	≤100 (MIC-equivalent values obtained at the succesive 2-fold dilution of the sample are 100-10 µg/ml)	MIC [7]: 1 to 10 µg/mL (≈ 1.79 to 17.9 µM); MIC ([8]; MRSA strain 891179): 1 to 10 µg/mL (≈ 1.79 to 17.9 µM); MIC ([8]; MRSA strain 891185): 1 to 10 µg/mL (≈ 1.79 to 17.9 µM); MIC ([8]; MRSA strain 891187): 1 to 10 µg/mL (≈ 1.79 to 17.9 µM); MIC ([8]; MRSA strain 891192): 1 to 10 µg/mL (≈ 1.79 to 17.9 µM); MIC ([8]; MRSA strain 900048): 1 to 10 µg/mL (≈ 1.79 to 17.9 µM); MIC ([8]; MRSA strain 900056): 1 to 10 µg/mL (≈ 1.79 to 17.9 µM)
CC(Oc1cc(Oc2ccc(C(F)(F)F)cc2Cl)cc(Oc2ccc(C(F)(F)F)cc2Cl)c1)C(=O)C(C#N)c1ccc(Cl)c(Cl)c1 (stereo not shown) [compound 210]	–	–	–	1 to 10 (≈ 1.38 to 13.8 µM)	10 to 100 (≈ 13.8 to 138 µM)	≤10 (10-1 µg/ml)	≤10 (10-1 µg/ml)	≤10 (10-1 µg/ml)	≤10 (10-1 µg/ml)	≤10 (10-1 µg/ml)	≤10 (10-1 µg/ml)	≤10 (10-1 µg/ml)	1 to 10 (≈ 1.38 to 13.8 µM)	≤10 (10-1 µg/ml)	≤10 (10-1 µg/ml)	≤10 (10-1 µg/ml)	10 to 100 (≈ 13.8 to 138 µM)	≤100 (MIC-equivalent values obtained at the succesive 2-fold dilution of the sample are 100-10 µg/ml)	≤100 (MIC-equivalent values obtained at the succesive 2-fold dilution of the sample are 100-10 µg/ml)	≤100 (MIC-equivalent values obtained at the succesive 2-fold dilution of the sample are 100-10 µg/ml)	MIC [7]: 1 to 10 µg/mL (≈ 1.38 to 13.8 µM); MIC ([8]; MRSA strain 891179): 1 to 10 µg/mL (≈ 1.38 to 13.8 µM); MIC ([8]; MRSA strain 891185): 1 to 10 µg/mL (≈ 1.38 to 13.8 µM); MIC ([8]; MRSA strain 891187): 1 to 10 µg/mL (≈ 1.38 to 13.8 µM); MIC ([8]; MRSA strain 891192): 1 to 10 µg/mL (≈ 1.38 to 13.8 µM); MIC ([8]; MRSA strain 900048): 1 to 10 µg/mL (≈ 1.38 to 13.8 µM); MIC ([8]; MRSA strain 900056): 1 to 10 µg/mL (≈ 1.38 to 13.8 µM)
CC(Oc1cc(Oc2ccc(C(F)(F)F)cc2Cl)cc(Oc2ccc(C(F)(F)F)cc2Cl)c1)C(=O)C(C#N)c1cccc(Br)c1 (stereo not shown) [compound 211]	–	–	–	1 to 10 (≈ 1.36 to 13.6 µM)	1 to 10 (≈ 1.36 to 13.6 µM)	≤10 (10-1 µg/ml)	≤10 (10-1 µg/ml)	≤10 (10-1 µg/ml)	≤10 (10-1 µg/ml)	≤10 (10-1 µg/ml)	≤10 (10-1 µg/ml)	≤10 (10-1 µg/ml)	1 to 10 (≈ 1.36 to 13.6 µM)	≤10 (10-1 µg/ml)	≤10 (10-1 µg/ml)	≤10 (10-1 µg/ml)	10 to 100 (≈ 13.6 to 136 µM)	≤100 (MIC-equivalent values obtained at the succesive 2-fold dilution of the sample are 100-10 µg/ml)	≤100 (MIC-equivalent values obtained at the succesive 2-fold dilution of the sample are 100-10 µg/ml)	≤100 (MIC-equivalent values obtained at the succesive 2-fold dilution of the sample are 100-10 µg/ml)	MIC [7]: 1 to 10 µg/mL (≈ 1.36 to 13.6 µM); MIC ([8]; MRSA strain 891179): 1 to 10 µg/mL (≈ 1.36 to 13.6 µM); MIC ([8]; MRSA strain 891185): 1 to 10 µg/mL (≈ 1.36 to 13.6 µM); MIC ([8]; MRSA strain 891187): 1 to 10 µg/mL (≈ 1.36 to 13.6 µM); MIC ([8]; MRSA strain 891192): 1 to 10 µg/mL (≈ 1.36 to 13.6 µM); MIC ([8]; MRSA strain 900048): 1 to 10 µg/mL (≈ 1.36 to 13.6 µM); MIC ([8]; MRSA strain 900056): 1 to 10 µg/mL (≈ 1.36 to 13.6 µM)
